Laboratory results from patent publication US8138191B2, “Inhibitor compounds and cancer treatment methods” (Critical Outcome Technologies Inc., priority 2007, dated 2012).

Legend:
[1] = tested on: SHP 77 cells; experiment: Proliferation with anti-cancer agents plus COTI-2, SHP 77; format: cell-based, human
[2] = tested on: AKT1, AKT2, AKT3 expression in a panel of cell lines; experiment: Correlation between AKT isoform expression and COTI-2 IC50 in a panel of cell lines; format: cell-based, human; conditions: corrected for total AKT expression
Source text: Cell cultures were maintained under regular tissue culture conditions and passaged 1-2 times a week as recommended by ATCC. For siRNA experiments the manufacturer's conditions for growth and transfection were followed. All siRNA reagents for AKT and AKT2 transfections were obtained from Cell Signaling.
Routine laboratory methods were employed for the production of cellular lysates, protein quantification, SDS-PAGE and western blotting. All antibodies were obtained from Cell Signaling and Abcam. To determine total AKT & AKT2 in DMS114 cells, 5×10^4 cells were incubated for 48 h with 10-100 ng of AKT2 siRNA or a scrambled control oligonucleotide. Cells were lysed and 50 μg of protein was separated by SDS-PAGE and blotted with antibody to total AKT or AKT2.
The expression of AKT1, AKT2, AKT3, total AKT and β-actin were examined in a panel of cell lines representing various types of cancers, with the aim of determining if a correlation exists with the pre-determined IC50's for these cell lines. […] The down-regulation of AKT2 prior to the addition of COTI-2 was confirmed with western blotting in DMS114 cell lines using an antibody to AKT2 (FIG. 35).

[3] = tested on: HeLa cells; experiment: Sensitivity to COTI-2 after PTEN siRNA knockdown (alamar Blue), HeLa; format: cell-based, human; conditions: 48 h post-transfection
Description: Briefly, HeLa and MCF-7 cells were transfected with 100 nM PTEN siRNA or control non-targeted siRNA at 48 or 144 h prior to exposure to various concentrations of COTI-2.
To assess the capacity of transient siRNA transfection to alter the ability of cells to proliferate in the presence or absence of COTI-2, HeLa or MCF-7 cells (both PTEN-positive) were plated in T25 flasks and transfected 24 h later with PTEN siRNA or non-targeting control siRNA (100 nM in both cases), using Oligofectamine Reagent (Invitrogen) according to the manufacturer's instructions and as previously described (J Pharmacol Exp Ther, 322:123-132). […] PTEN and 18S rRNA mRNA levels were determined by semi-quantitative reverse transcription PCR. […]
For determination of drug sensitivity, HeLa and MCF-7 cells (transfected with PTEN siRNA or control, non-targeted siRNA 48 or 144 hours prior) were re-plated in 96-well plates (VWR, Mississauga, ON, Canada) at 1700 (MCF-7) and 1200 (HeLa) cells per well in a volume of 100 μl of DMEM+10% FBS. […] Cells were then grown for 4 days, and viable cell numbers were assessed by the alamar Blue fluorescence assay using a Wallac Victor^2 multilabel counter (PerkinElmer Wallac, Gaithersburg, Md.). […]

[4] = in vitro; format: in vitro ADME; conditions: mixed breeds, rat
[5] = tested on: rat plasma; experiment: in vitro; format: in vitro ADME; conditions: mixed breeds, 10 µM
[6] = tested on: SHP77 cells; experiment: siRNA target knock-down with COTI-219, cell viability by trypan blue, SHP77; format: cell-based, human; conditions: SHP77, 500 nM, 48 h
Description: In brief, cells DMS114 and SHP77 cells were transfected with gene specific siRNA in the presence or absence of COTI-219 and cell viability determined after 24 to 48 h post-incubation using the trypan blue exclusion method.
Cell cultures were maintained under regular tissue culture conditions and passaged 1-2 times a week as recommended by ATCC. With the exception of the siRNA for Bim (Signal Silence Bim siRNA kit #6460 from Cell Signaling), all other siRNA reagents for gene knock-down experiments was obtained from Ambion (Silencer Negative Control #1 siRNA #AM4611, CDK2 Silencer Select #s204, HRAS Silencer Select #s807, Protein kinase C alpha Silencer Validated #301, MAPK3/Erk Silencer Pre-designed #214749, EGFR Silencer Select #s563, and ERBB2 Silencer Select #s611). […] The transfection method required optimization such that a knock-down of the target gene greater than ˜75% was achieved and confirmed by western blot analyses. […] Following an optimal knock-down level at >75%, 2×10^5 cells were incubated with 500 nM COTI-219 and number of viable cells was measured at 48 h.
Cell viability assays were performed 24 to 48 h following incubation with COTI-219 by the trypan blue exclusion method using a Beckman-Coulter Vi-CELL XR 2.03 automated cell counter. Routine laboratory methods were employed for the production of cellular lysates, protein quantitation, SDS-PAGE and western blotting. […]

Row | SMILES | reduction of proliferation as a single agent ([1]; SHP 77, 31 nM) [%] | reduction of proliferation as a single agent ([1]; SHP 77, 73 nM) [%] | correlation of AKT2 expression with COTI-2 IC50 [2] | resistance to COTI-2 after PTEN siRNA transfection [3] | recovery at 10 µM ([4]; % Recovery 1st) [%] | recovery at 10 µM ([4]; % Recovery 2nd) [%] | recovery at 10 µM ([4]; % Recovery Mean) [%] | recovery at 10 µM ([4]; percent recovery) [%] | % Protein Bound 1st [5] [%] | % Protein Bound 2nd [5] [%] | % Protein Bound Mean [5] [%] | percent protein bound [5] [%] | target knock-downs suppressing the apoptotic/cell growth inhibitory effect of COTI-219 [6]
1 | S=C(N/N=C1/CCCc2cccnc21)N1CCN(c2ccccn2)CC1 [COTI-2] | 25 | 25 | inversely correlated | significant increase in the resistance | 16.4 | 25.1 | 20.7 | < 50 | >99.9 | >99.9 | >99.9 | > 99 | –
2 | CN1CCN(C(=S)NN=C2c3ncccc3-c3cccnc32)CC1 [COTI-219] | – | – | – | – | – | – | – | – | – | – | – | – | not only Ras but Erbb2, Erk1, and PKC-α all suppressed
